Assays:
[1] = tested on: EV-D68 US/KY/14-18953; experiment: CPE assay, EV-D68 US/KY/14-18953 in RD cells; assay type: cell-based, enterovirus D68; details: vs 7a
[2] = tested on: EV-D68 and EV-A71 strains; experiment: organism not typed; assay type: cell-based; details: for EC50: RD, read-out: EC50 values against all EV-D68 and EV-A71 strains tested; for selectivity index over all EV-D68 and EV-A71 strains tested: strains of Table 2, RD cells
[3] = tested on: EV-D68 2C-D183V mutant; assay type: binding; details: 7d at 100 μM
[4] = tested on: EV-D68 2C-D323G mutant; assay type: binding; details: 7d at 100 μM
[5] = tested on: EV-D68 2C-D183V/D323G double mutant; assay type: binding; details: 7d at 100 μM
[6] = tested on: EV-A71 2C protein; assay type: binding; details: 7d at 10, 30, 100 and 300 μM
[7] = molecular target: CVB3 2C protein (Coxsackievirus B3, UniProt P03313); assay type: binding; details: 7d at 10, 30, 100 and 300 μM
[8] = tested on: EV-D68 US/MO/14-18947; experiment: Plaque assay, EV-D68 US/MO/14-18947 in RD cells; assay type: cell-based, enterovirus D68; details: at 3 μM, positive control
[9] = tested on: EV-D68 US/MO/14-18947; experiment: Immunofluorescence assay; assay type: cell-based, enterovirus D68; details: at 50 μM, SH-SY5Y cells, positive control

In the case of `CC(C)n1ncc2c(C(=O)NCCN3CCCC3)cc(C3CC3)nc21` [7b, 6-cyclopropyl-1-(propan-2-yl)-N-[2-(pyrrolidin-1-yl)ethyl]-1H-pyrazolo[3,4-b]pyridine-4-carboxamide], the “improvement in antiviral efficacy compared to the original hit 7a against EV-D68 virus” value [1] is reported as “more than 100 fold”.
`CC(C)n1ncc2c(C(=O)NCCN(C)C)cc(C3CC3)nc21` [7d, 6-cyclopropyl-N-[2-(dimethylamino)ethyl]-1-(propan-2-yl)-1H-pyrazolo[3,4-b]pyridine-4-carboxamide] was tested, and the “improvement in antiviral efficacy compared to the original hit 7a against EV-D68 virus” value [1] was “more than 100 fold”, the EC50 [2] was 40 to 100 nM and the “ΔTm, 2C-D183V mutant” value [3] was 0.01 °C. For the same compound, the “ΔTm, 2C-D323G mutant” value [4] was 3.92 °C, the “ΔTm, 2C-D183V/D323G double mutant” value [5] was 0.61 °C and the “binding to EV-A71 2C protein” value [6] was “dose-dependent binding”. For the same compound, the “binding to CVB3 2C protein” value [7] was “dose-dependent binding”.
With `CC(CN(C)C)NC(=O)c1cc(C2CC2)nc2c1cnn2C(C)C` (stereo not drawn) [7f, 6-cyclopropyl-N-[1-(dimethylamino)propan-2-yl]-1-(propan-2-yl)-1H-pyrazolo[3,4-b]pyridine-4-carboxamide] the “improvement in antiviral efficacy compared to the original hit 7a against EV-D68 virus” value [1] was “more than 100 fold”.
`CC(C)n1ncc2c(C(=O)NC3CCN(C)C3)cc(C3CC3)nc21` (stereo not drawn) [7g, 6-cyclopropyl-N-(1-methylpyrrolidin-3-yl)-1-(propan-2-yl)-1H-pyrazolo[3,4-b]pyridine-4-carboxamide] was tested, and the “improvement in antiviral efficacy compared to the original hit 7a against EV-D68 virus” value [1] was “more than 100 fold”.
In the case of `CNCCNC(=O)c1cc(C2CC2)nc2c1cnn2C(C)C` [7h, 6-cyclopropyl-N-[2-(methylamino)ethyl]-1-(propan-2-yl)-1H-pyrazolo[3,4-b]pyridine-4-carboxamide], the “improvement in antiviral efficacy compared to the original hit 7a against EV-D68 virus” value [1] is reported as “more than 100 fold”, the EC50 [2] is reported as 60 to 300 nM and the “selectivity index over all EV-D68 and EV-A71 strains tested” value [2] is reported as “over 700”.
In the case of `CC(C)c1cc(C(=O)NCCN(C)C)c2cnn(C(C)C)c2n1` [10a, N-[2-(dimethylamino)ethyl]-1,6-bis(propan-2-yl)-1H-pyrazolo[3,4-b]pyridine-4-carboxamide], the EC50 [2] is reported as 60 to 300 nM and the “selectivity index over all EV-D68 and EV-A71 strains tested” value [2] is reported as “over 700”.
For `CCC[C@H](NC(=O)[C@@H]1[C@H]2CCC[C@H]2CN1C(=O)[C@@H](NC(=O)[C@@H](NC(=O)c1cnccn1)C1CCCCC1)C(C)(C)C)C(=O)C(=O)NC1CC1` [Telaprevir], the “inhibition of plaque formation” value [8] was “complete inhibition of plaque formation”.
Work on `Cc1cc(C(=O)NCCN(C)C)c2c(C)nn(C(C)(C)C)c2n1` [compound 19, 1-tert-butyl-N-[2-(dimethylamino)ethyl]-3,6-dimethyl-1H-pyrazolo[3,4-b]pyridine-4-carboxamide] yielded an EC50 [2] of 400 to 7400 nM.
With `Cc1cc(CCCOc2c(C)cc(-c3noc(C(F)(F)F)n3)cc2C)on1` [pleconaril] the “viral replication (VP1 fluorescence signal)” value [9] was “completely abolished viral replication”.
